Measured values as given in patent US10538555B2, “Macrocyclic inhibitors of the PD-1/PD-L1 and CD80(B7-1)/PD-L1 protein/protein interactions” (BRISTOL-MYERS SQUIBB COMPANY, priority 2014, dated 2020).
pIC50: −log10 of the molar value. Where two headings read alike, the source gives them in different places. *1 amine or outer side, *2 acyl side, *3 side chain or, on linkers, in order; H or OH if unused. Where a SMILES comes first, the peptide text is derived from it. Bridges are numbered along the chain shown (N, C = ends). [ ]: non-standard residue; d: D form. ξ: configuration not given here. X5 = O=C(O)CC[C@H](N[*:1])C(=O)C1C[C@H](O)C[C@H]1C(=O)[*:2]; Trp(βS-Me) = C[C@@H](c1c[nH]c2ccccc12)[C@H](N)C(=O)O; Phe(3,4,5-F3) = N[C@@H](Cc1cc(F)c(F)c(F)c1)C(=O)O; NMePhe(4-F) = CN[C@@H](Cc1ccc(F)cc1)C(=O)O; Phe(4-CN) = N#Cc1ccc(C[C@H](N)C(=O)O)cc1; Phe(4-F) = N[C@@H](Cc1ccc(F)cc1)C(=O)O; d(cisHyp) = O=C(O)[C@H]1C[C@@H](O)CN1; Bta = N[C@@H](Cc1csc2ccccc12)C(=O)O; NMe3Pal = CN[C@@H](Cc1cccnc1)C(=O)O; NMeY = CN[C@@H](Cc1ccc(O)cc1)C(=O)O; Hyp = O=C(O)[C@@H]1C[C@@H](O)CN1; NMeF = CN[C@@H](Cc1ccccc1)C(=O)O; X1 = O=C([C@H]1COCCN1[*:1])[*:2]; NMeE = CN[C@@H](CCC(=O)O)C(=O)O; dHyp = O=C(O)[C@H]1C[C@H](O)CN1; NMeL = CN[C@@H](CC(C)C)C(=O)O; NMeNle = CCCC[C@H](NC)C(=O)O; dPip = O=C(O)[C@H]1CCCCN1; NMeA = CN[C@@H](C)C(=O)O; Orn = NCCC[C@H](N)C(=O)O; Dab = NCC[C@H](N)C(=O)O; Dap = NC[C@H](N)C(=O)O; ξC = NC(CS)C(=O)O; Sar = CNCC(=O)O

Biological target: T1, Human PD-L1/PD-1 (Homo sapiens, UniProt Q9NZQ7)
T1 construct: TVMV protease cleavage site (C); made in house; host or cells: HEK293T cells
T1 sequence (Q9NZQ7 with tags, fused parts or gaps): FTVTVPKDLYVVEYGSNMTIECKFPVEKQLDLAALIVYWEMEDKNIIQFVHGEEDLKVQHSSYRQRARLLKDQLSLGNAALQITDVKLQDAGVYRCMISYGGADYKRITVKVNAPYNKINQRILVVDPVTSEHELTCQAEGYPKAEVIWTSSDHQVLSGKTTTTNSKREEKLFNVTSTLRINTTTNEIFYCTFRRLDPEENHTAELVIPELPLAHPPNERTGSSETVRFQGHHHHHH
Assay: HTRF Human PD-L1/PD-1 binding assay (PD-1-Ig/PD-L1-His)
Conditions: PD-L1-His 10 nM, PD-1-Ig 20 nM
Outline: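 Truncated Fc-fused human PD-1 (aa 25-167) at 20 nM and His-tagged PD-L1 (aa 18-239) at 10 nM final are used, with peptides preincubated 15 min with PD-L1. Detection uses europium-cryptate anti-Ig and APC anti-His antibodies; 665/620 nm ratio.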

[1] = class symbol, read-out: HTRF Human PD-L1/PD-1 Binding Assay IC50 Range

SMILES	pIC50 [1]	pIC50 (read-out: HTRF Human PD-L1/PD-1 Binding Assay IC50)
CCCC[C@H]1C(=O)N2CCC[C@@H]2C(=O)N[C@@H](CC(=O)O)C(=O)N[C@@H](C(C)C)C(=O)N(C)[C@@H](CC(C)C)C(=O)N[C@@H](CCC(N)=O)C(=O)N2CCCC[C@@H]2C(=O)N[C@@H](Cc2c[nH]c3ccccc23)C(=O)N[C@@H](Cc2ccc(O)cc2)C(=O)N[C@@H](CCCN)C(=O)N[C@H](C(=O)NCC(N)=O)CSCC(=O)N[C@@H](Cc2ccc(F)cc2)C(=O)N(C)[C@@H](Cc2ccccc2)C(=O)N1C [Example 9256] ({CH2CO}-[Phe(4-F)][NMeF][NMeNle][dP]DV[NMeL]Q[dPip]WY[Orn]CG-NH2; thioether N-13)	5.00 to 6.00	
CCCC[C@H]1C(=O)N2CCC[C@@H]2C(=O)N[C@@H](CC(=O)O)C(=O)N[C@@H](C(C)C)C(=O)N(C)[C@@H](Cc2ccccc2)C(=O)N[C@@H](CCC(=O)O)C(=O)N2CCCC[C@@H]2C(=O)N[C@H](CCC(=O)O)C(=O)N[C@@H](Cc2ccc(O)cc2)C(=O)N[C@@H](CCCN)C(=O)N[C@H](C(=O)NCC(N)=O)CSCC(=O)N[C@@H](Cc2cc(F)c(F)c(F)c2)C(=O)N(C)[C@@H](Cc2ccc(F)cc2)C(=O)N1C [Example 10608] ({CH2CO}-[Phe(3,4,5-F3)][NMePhe(4-F)][NMeNle][dP]DV[NMeF]E[dPip][dE]Y[Orn]CG-NH2; thioether N-13)	5.00 to 6.00	
CCCC[C@H]1C(=O)N(C)CC(=O)N[C@@H](CC(N)=O)C(=O)N[C@@H](C(C)C)C(=O)N(C)[C@@H](Cc2ccccc2)C(=O)N[C@@H](Cc2ccc(O)cc2)C(=O)N(C)CC(=O)N[C@@H](Cc2c[nH]c3ccccc23)C(=O)N[C@@H](Cc2ccc(O)cc2)C(=O)N[C@@H](CCCN)C(=O)N[C@H](C(=O)NCC(N)=O)CSCC(=O)N[C@@H](Cc2ccccc2)C(=O)N(C)[C@@H](Cc2cccnc2)C(=O)N1C [Example 3614] ({CH2CO}-F[NMe3Pal][NMeNle][Sar]NV[NMeF]Y[Sar]WY[Orn]CG-NH2; thioether N-13)	7.00 to 8.00	
CCCC[C@H]1C(=O)N2C[C@H](O)C[C@@H]2C(=O)N[C@@H](CC(=O)O)C(=O)N[C@@H](C(C)C)C(=O)N(C)[C@@H](Cc2ccccc2)C(=O)N[C@@H](CC(=O)O)C(=O)N2C[C@H](O)C[C@@H]2C(=O)N[C@@H](Cc2c[nH]c3ccccc23)C(=O)N[C@@H](Cc2ccc(O)cc2)C(=O)N[C@@H](CCCCN)C(=O)N[C@H](C(=O)NCC(N)=O)CSCC(=O)N[C@@H](Cc2cc(F)c(F)c(F)c2)C(=O)N(C)[C@@H](Cc2ccccc2)C(=O)N1C [Example 9345] ({CH2CO}-[Phe(3,4,5-F3)][NMeF][NMeNle][d(cisHyp)]DV[NMeF]D[d(cisHyp)]WYKCG-NH2; thioether N-13)	8.00 to 9.00	
CC(C)C[C@@H]1NC(=O)[C@H](Cc2ccc(O)cc2)NC(=O)[C@H](Cc2c[nH]c3ccccc23)NC(=O)[C@H]2COCCN2C(=O)[C@H](Cc2ccc(O)cc2)NC(=O)[C@H](Cc2ccccc2)N(C)C(=O)[C@H](C(C)C)NC(=O)[C@H](CC(=O)O)NC(=O)[C@H]2C[C@@H](O)CN2C(=O)[C@H](CCC(=O)O)N(C)C(=O)[C@H](Cc2ccccc2)N(C)C(=O)[C@H](Cc2cc(F)c(F)c(F)c2)NC(=O)CSC[C@@H](C(=O)NCC(N)=O)NC1=O [Example 10176] ({CH2CO}-[Phe(3,4,5-F3)][NMeF][NMeE][d(cisHyp)]DV[NMeF]Y[X1]WYLCG-NH2; thioether N-13)		7.96
CCCC[C@H]1C(=O)N(C)[C@@H](CCCC)C(=O)N[C@@H](CCCNC(=N)N)C(=O)NC(C(=O)NCC(N)=O)CSCC(=O)N[C@@H](Cc2ccc(O)cc2)C(=O)N(C)[C@@H](C)C(=O)N[C@@H](CC(N)=O)C(=O)N2CCC[C@H]2C(=O)N[C@@H](CO)C(=O)N[C@@H](CO)C(=O)N2C[C@H](O)C[C@H]2C(=O)N[C@@H](Cc2c[nH]c3ccccc23)C(=O)N[C@@H](CO)C(=O)N[C@@H](Cc2csc3ccccc23)C(=O)N1C (stereo partly drawn) [Example 10016] ({CH2CO}-Y[NMeA]NPSS[Hyp]WS[Bta][NMeNle][NMeNle]R[ξC]G-NH2; thioether N-14)	7.00 to 8.00	
CCCC[C@H]1C(=O)N2C[C@H](O)C[C@@H]2C(=O)N[C@@H](CC(=O)O)C(=O)N[C@@H](C(C)C)C(=O)N(C)[C@@H](Cc2ccccc2)C(=O)N[C@@H](CC(=O)O)C(=O)N2C[C@H](O)C[C@@H]2C(=O)N[C@@H](Cc2c[nH]c3ccccc23)C(=O)N[C@@H](Cc2ccc(O)cc2)C(=O)N[C@@H](CC(N)=O)C(=O)N[C@H](C(=O)NCC(N)=O)CSCC(=O)N[C@@H](Cc2cc(F)c(F)c(F)c2)C(=O)N(C)[C@@H](Cc2ccccc2)C(=O)N1C [Example 9352] ({CH2CO}-[Phe(3,4,5-F3)][NMeF][NMeNle][d(cisHyp)]DV[NMeF]D[d(cisHyp)]WYNCG-NH2; thioether N-13)	8.00 to 9.00	
CCCC[C@H]1C(=O)N(C)[C@@H](CCCC)C(=O)N[C@@H](CCC(=O)O)C(=O)N[C@H](C(=O)NCC(N)=O)CSCC(=O)N[C@@H](Cc2ccc(O)cc2)C(=O)N(C)[C@@H](C)C(=O)N[C@@H](CC(=O)O)C(=O)N2CCC[C@H]2C(=O)N[C@@H](Cc2c[nH]cn2)C(=O)N[C@@H](CCC(N)=O)C(=O)N2C[C@H](O)C[C@H]2C(=O)N[C@@H]([C@@H](C)c2c[nH]c3ccccc23)C(=O)N[C@@H](CO)C(=O)N[C@@H](Cc2c[nH]c3ccccc23)C(=O)N1C [Example 10552] ({CH2CO}-Y[NMeA]DPHQ[Hyp][Trp(βS-Me)]SW[NMeNle][NMeNle]ECG-NH2; thioether N-14)	8.00 to 9.00	
CCCC[C@H]1C(=O)N(C)[C@@H](CCCC)C(=O)N[C@@H](CCCNC(=N)N)C(=O)N[C@H](C(=O)NCC(N)=O)CSCC(=O)N[C@@H](Cc2ccc(C#N)cc2)C(=O)N(C)[C@@H](C)C(=O)N[C@@H](CC(N)=O)C(=O)N2CCC[C@H]2C(=O)N[C@@H](Cc2cnc[nH]2)C(=O)N[C@@H](CCC(=O)O)C(=O)C2C[C@H](O)C[C@H]2C(=O)N[C@@H](Cc2c[nH]c3ccccc23)C(=O)N[C@@H](CCN)C(=O)N[C@@H](Cc2c[nH]c3ccccc23)C(=O)N1C (stereo partly drawn) [Example 7077] ({CH2CO}-[Phe(4-CN)][NMeA]NPH[X5]W[Dab]W[NMeNle][NMeNle]RCG-NH2; thioether N-13)	8.00 to 9.00	
CCCC[C@H]1C(=O)N2CCC[C@@H]2C(=O)N[C@@H](CC(=O)O)C(=O)N[C@@H](C(C)C)C(=O)N(C)[C@@H](Cc2ccccc2)C(=O)N[C@@H](Cc2ccc(O)cc2)C(=O)N2CCCC[C@@H]2C(=O)N[C@H](CCC(=O)O)C(=O)N[C@@H](Cc2ccc(O)cc2)C(=O)N[C@@H](CCCN)C(=O)N[C@H](C(=O)NCC(N)=O)CSCC(=O)N[C@@H](Cc2cc(F)c(F)c(F)c2)C(=O)N(C)[C@@H](Cc2ccc(F)cc2)C(=O)N1C [Example 10610] ({CH2CO}-[Phe(3,4,5-F3)][NMePhe(4-F)][NMeNle][dP]DV[NMeF]Y[dPip][dE]Y[Orn]CG-NH2; thioether N-13)	6.00 to 7.00	
CCCC[C@H]1C(=O)N(C)[C@@H](CCCC)C(=O)N[C@@H](CCN)C(=O)NC(C(=O)NCC(N)=O)CSCC(=O)N[C@@H](Cc2ccc(O)cc2)C(=O)N(C)[C@@H](C)C(=O)N[C@@H](CC(N)=O)C(=O)N2CCC[C@H]2C(=O)N[C@@H](CC(N)=O)C(=O)N[C@@H](CC(C)C)C(=O)N2CCC[C@H]2C(=O)N[C@@H](Cc2csc3ccccc23)C(=O)N[C@@H](CO)C(=O)N[C@@H](Cc2c[nH]c3ccccc23)C(=O)N1C (stereo partly drawn) [Example 9163] ({CH2CO}-Y[NMeA]NPNLP[Bta]SW[NMeNle][NMeNle][Dab][ξC]G-NH2; thioether N-14)	8.00 to 9.00	
CCCC[C@H]1C(=O)N2C[C@@H](O)C[C@@H]2C(=O)N[C@@H](CC(=O)O)C(=O)N[C@@H](C(C)C)C(=O)N(C)[C@@H](Cc2ccccc2)C(=O)N[C@@H](Cc2ccc(O)cc2)C(=O)N2C[C@@H](O)C[C@@H]2C(=O)N[C@@H](Cc2c[nH]c3ccccc23)C(=O)N[C@@H](Cc2ccc(O)cc2)C(=O)N[C@@H](CC(C)C)C(=O)N[C@H](C(=O)NCC(N)=O)CSCC(=O)N[C@@H](Cc2cc(F)c(F)c(F)c2)C(=O)N(C)[C@@H](Cc2ccccc2)C(=O)N1C [Example 9273] ({CH2CO}-[Phe(3,4,5-F3)][NMeF][NMeNle][dHyp]DV[NMeF]Y[dHyp]WYLCG-NH2; thioether N-13)	8.00 to 9.00	
CCCC[C@H]1C(=O)N(C)[C@@H](CCCC)C(=O)N[C@@H](CCC(=O)O)C(=O)NC(C(=O)NCC(N)=O)CSCC(=O)N[C@@H](Cc2ccc(O)cc2)C(=O)N(C)[C@@H](C)C(=O)N[C@@H](CC(N)=O)C(=O)N2CCC[C@H]2C(=O)N[C@@H](CC(N)=O)C(=O)N[C@@H](CC(C)C)C(=O)N2CCC[C@H]2C(=O)N[C@@H](Cc2c[nH]c3ccccc23)C(=O)N[C@@H](CO)C(=O)N[C@@H](Cc2c[nH]c3ccccc23)C(=O)N1C (stereo partly drawn) [Example 9168] ({CH2CO}-Y[NMeA]NPNLPWSW[NMeNle][NMeNle]E[ξC]G-NH2; thioether N-14)	8.00 to 9.00	
CCCC[C@H]1C(=O)N(C)[C@@H](CCCC)C(=O)N[C@@H](CCCN)C(=O)N[C@H](C(=O)NCC(N)=O)CSCC(=O)N[C@@H](Cc2ccc(OC)cc2)C(=O)N(C)[C@@H](C)C(=O)N[C@@H](CC(=O)O)C(=O)N2CCC[C@H]2C(=O)N[C@@H](CN)C(=O)N[C@@H](CCCCN)C(=O)N2C[C@H](O)C[C@H]2C(=O)N[C@@H](Cc2c[nH]c3ccccc23)C(=O)N[C@@H](CC(=O)O)C(=O)N[C@@H](Cc2c[nH]c3ccccc23)C(=O)N1C [Example 7129] ({CH2CO}-Y(Me)[NMeA]DP[Dap]K[Hyp]WDW[NMeNle][NMeNle][Orn]CG-NH2; thioether N-14)	8.00 to 9.00	
CCCC[C@H]1C(=O)N2CCC[C@@H]2C(=O)N[C@@H](CC(=O)O)C(=O)N[C@@H](C(C)C)C(=O)N(C)[C@@H](Cc2ccccc2)C(=O)N[C@@H](CCC(=O)O)C(=O)N2CCOC[C@@H]2C(=O)N[C@@H](Cc2c[nH]c3ccccc23)C(=O)N[C@@H](Cc2ccc(O)cc2)C(=O)N[C@@H](CC(C)C)C(=O)N[C@H](C(=O)NCC(N)=O)CSCC(=O)N[C@@H](Cc2cc(F)c(F)c(F)c2)C(=O)N(C)[C@@H](Cc2ccc(O)cc2)C(=O)N1C [Example 10615] ({CH2CO}-[Phe(3,4,5-F3)][NMeY][NMeNle][dP]DV[NMeF]E[X1]WYLCG-NH2; thioether N-13)	7.00 to 8.00	
